In patent publication US12516046B2, “2-oxo-oxazolidine-5-carboxamides as NAV1.8 inhibitors” (Merck Sharp & Dohme LLC, priority 2020, dated 2026) one finds IC50 data, which are given here for 28 compounds.

Sequence of human Nav1.8 (Q9Y5Y9 whole entry): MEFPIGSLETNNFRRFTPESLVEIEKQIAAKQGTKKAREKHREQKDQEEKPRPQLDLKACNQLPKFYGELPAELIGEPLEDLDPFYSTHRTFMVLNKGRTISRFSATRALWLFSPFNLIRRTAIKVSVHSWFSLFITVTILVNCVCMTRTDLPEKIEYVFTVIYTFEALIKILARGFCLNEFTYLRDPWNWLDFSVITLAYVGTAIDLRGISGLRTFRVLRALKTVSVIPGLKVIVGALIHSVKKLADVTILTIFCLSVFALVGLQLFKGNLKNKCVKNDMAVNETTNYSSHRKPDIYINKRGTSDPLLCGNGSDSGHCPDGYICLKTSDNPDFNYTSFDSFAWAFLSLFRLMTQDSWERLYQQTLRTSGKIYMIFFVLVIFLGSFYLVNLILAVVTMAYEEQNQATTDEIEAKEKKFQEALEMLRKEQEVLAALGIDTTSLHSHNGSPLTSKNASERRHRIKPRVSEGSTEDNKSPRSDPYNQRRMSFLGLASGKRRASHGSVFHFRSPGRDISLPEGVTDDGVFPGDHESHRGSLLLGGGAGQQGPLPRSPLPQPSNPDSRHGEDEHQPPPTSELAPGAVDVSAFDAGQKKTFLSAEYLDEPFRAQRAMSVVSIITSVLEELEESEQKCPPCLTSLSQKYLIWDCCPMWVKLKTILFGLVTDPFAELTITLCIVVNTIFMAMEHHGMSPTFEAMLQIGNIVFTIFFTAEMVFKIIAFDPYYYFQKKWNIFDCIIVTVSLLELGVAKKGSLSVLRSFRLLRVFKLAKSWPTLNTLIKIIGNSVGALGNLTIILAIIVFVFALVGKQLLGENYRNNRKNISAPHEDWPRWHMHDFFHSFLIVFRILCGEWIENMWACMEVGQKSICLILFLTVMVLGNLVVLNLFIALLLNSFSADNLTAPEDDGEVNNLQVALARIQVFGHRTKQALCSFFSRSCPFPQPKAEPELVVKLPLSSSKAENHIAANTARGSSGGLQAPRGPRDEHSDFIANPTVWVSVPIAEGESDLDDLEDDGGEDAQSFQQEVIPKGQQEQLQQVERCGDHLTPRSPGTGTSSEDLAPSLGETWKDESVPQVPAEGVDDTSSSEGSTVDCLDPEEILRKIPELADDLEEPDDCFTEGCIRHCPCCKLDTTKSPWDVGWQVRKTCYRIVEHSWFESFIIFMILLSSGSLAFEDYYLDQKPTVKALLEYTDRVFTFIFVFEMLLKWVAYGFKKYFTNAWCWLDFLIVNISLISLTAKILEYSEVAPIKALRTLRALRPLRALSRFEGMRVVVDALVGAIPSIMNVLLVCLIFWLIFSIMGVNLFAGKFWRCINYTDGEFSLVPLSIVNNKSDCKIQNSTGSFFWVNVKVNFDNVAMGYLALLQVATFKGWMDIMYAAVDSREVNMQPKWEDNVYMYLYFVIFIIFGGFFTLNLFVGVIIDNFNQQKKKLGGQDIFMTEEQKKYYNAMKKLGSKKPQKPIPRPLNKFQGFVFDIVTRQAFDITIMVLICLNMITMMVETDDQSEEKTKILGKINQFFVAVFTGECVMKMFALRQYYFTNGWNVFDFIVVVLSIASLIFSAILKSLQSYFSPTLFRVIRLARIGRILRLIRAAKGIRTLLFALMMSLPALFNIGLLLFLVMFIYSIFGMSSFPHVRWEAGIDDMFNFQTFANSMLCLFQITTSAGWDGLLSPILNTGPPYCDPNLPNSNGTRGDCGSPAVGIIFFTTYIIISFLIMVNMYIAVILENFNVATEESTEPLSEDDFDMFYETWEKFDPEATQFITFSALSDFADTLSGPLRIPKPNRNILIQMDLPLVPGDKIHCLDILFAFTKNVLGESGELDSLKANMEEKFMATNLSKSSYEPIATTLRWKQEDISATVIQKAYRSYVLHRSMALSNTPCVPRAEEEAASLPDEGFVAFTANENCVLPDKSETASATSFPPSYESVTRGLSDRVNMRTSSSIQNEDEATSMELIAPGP

For this test, the target named is human Nav1.8 (Homo sapiens (Human), UniProt Q9Y5Y9). Description: Nav1.8 Qube® Assay (automated 384-well patch-clamp). The class given is cell-based. Conditions: human Nav1.8 channels stably expressed in HEK 293 cells. From the text:
Qube® Assay Experimental Procedure
For `N#Cc1ccc(C(NC(=O)[C@@H]2CNC(=O)O2)c2cnc(C(F)(F)F)c(Cl)c2)cc1Cl` (single isomer, unassigned) [Example 54A, (S)-N-((R or S)-(3-chloro-4-cyano-phenyl)(5-chloro-6-(trifluoromethyl)pyridin-3-yl)methyl)-2-oxooxazolidine-5-carboxamide], 1.7 nM corresponded to half-maximal inhibition (IC50).
`N#Cc1ccc(C(NC(=O)[C@@H]2CNC(=O)O2)c2cnc(C(F)(F)F)c(Cl)c2)cc1Cl` (single isomer, unassigned) [Example 54B, (S)-N-((R or S)-(3-chloro-4-cyano-phenyl)(5-chloro-6-(trifluoromethyl)pyridin-3-yl)methyl)-2-oxooxazolidine-5-carboxamide] yielded an IC50 of 7.2 nM.
Compound `COc1cc(Cl)ccc1C(NC(=O)[C@@H]1CNC(=O)O1)c1ccc(F)cc1` (single isomer, unassigned) [Example 55A, (S)—N—((R or S)-(4-chloro-2-methoxyphenyl)(4-fluorophenyl)-methyl)-2-oxooxazolidine-5-carboxamide] returned an IC50 of 19 nM.
The compound `COc1cc(Cl)ccc1C(NC(=O)[C@@H]1CNC(=O)O1)c1ccc(F)cc1` (single isomer, unassigned) [Example 55B, (S)—N—((R or S)-(4-chloro-2-methoxyphenyl)(4-fluorophenyl)methyl)-2-oxooxazolidine-5-carboxamide] showed an IC50 of 4.7 nM.
Under `O=C1NC[C@@H](C(=O)NC(c2ccc(Cl)cc2)C23C4C5C6C4C2C6C53)O1` (single isomer, unassigned) [Example 56A, (S)—N—((R or S)-(4-chlorophenyl)(cuban-1-yl)methyl)-2-oxooxazolidine-5-carboxamide] stands 229 nM; under `O=C1NC[C@@H](C(=O)NC(c2ccc(Cl)cc2)C23C4C5C6C4C2C6C53)O1` (single isomer, unassigned) [Example 56B, (S)—N—((R or S)-(4-chlorophenyl)(cuban-1-yl)methyl)-2-oxooxazolidine-5-carboxamide], 289 nM.
Under `O=C1NC[C@@H](C(=O)NC(c2ccc(Cl)cc2)C2CCC(F)(F)C2)O1` (single isomer, unassigned) [Example 57A, (S)-N-((R or S)-(4-chlorophenyl)((R or S)-3,3-difluorocyclopentyl)methyl)-2-oxooxazolidine-5-carboxamide] stands 3450 nM; under `O=C1NC[C@@H](C(=O)NC(c2ccc(Cl)cc2)C2CCC(F)(F)C2)O1` (single isomer, unassigned) [Example 57B, (S)-N-((R or S)-(4-chlorophenyl)((R or S)-3,3-difluorocyclopentyl)methyl)-2-oxooxazolidine-5-carboxamide], 5720 nM.
Under `O=C1NC[C@@H](C(=O)NC(c2ccc(Cl)cc2)C2CCC(F)(F)C2)O1` (single isomer, unassigned) [Example 57C, (S)-N-((R or S)-(4-chlorophenyl)((R or S)-3,3-difluorocyclopentyl)methyl)-2-oxooxazolidine-5-carboxamide] stands 903 nM.
For `O=C1NC[C@@H](C(=O)NC(c2ccc(Cl)cc2)C2CCC(F)(F)C2)O1` (single isomer, unassigned) [Example 57D, (S)-N-((R or S)-(4-chlorophenyl)((R or S)-3,3-difluorocyclopentyl)methyl)-2-oxooxazolidine-5-carboxamide], the IC50 turned out to be 1160 nM.
Take `COc1ncccc1C(NC(=O)[C@@H]1CNC(=O)O1)c1ccc(F)c(Cl)c1` (single isomer, unassigned) [Example 58A, (S)-N-((R or S)-(3-chloro-4-fluorophenyl)(2-methoxypyridin-3-yl)methyl)-2-oxooxazolidine-5-carboxamide]: it took 12 nM to reach half-maximal inhibition (IC50).
The same measure for `COc1ncccc1C(NC(=O)[C@@H]1CNC(=O)O1)c1ccc(F)c(Cl)c1` (single isomer, unassigned) [Example 58B, (S)-N-((R or S)-(3-chloro-4-fluorophenyl)(2-methoxypyridin-3-yl)methyl)-2-oxooxazolidine-5-carboxamide]: 24 nM; for `O=C1NC[C@@H](C(=O)NC(c2ccc(F)c(Cl)c2)c2cnn(CC(F)(F)F)c2)O1` (single isomer, unassigned) [Example 59A, (S)-N-((R or S)-(3-chloro-4-fluorophenyl)(1-(2,2,2-trifluoroethyl)-1H-pyrazol-4-yl)methyl)-2-oxooxazolidine-5-carboxamide]: 171 nM.
The same measure for `O=C1NC[C@@H](C(=O)NC(c2ccc(F)c(Cl)c2)c2cnn(CC(F)(F)F)c2)O1` (single isomer, unassigned) [Example 59B, (S)-N-((R or S)-(3-chloro-4-fluorophenyl)(1-(2,2,2-trifluoroethyl)-1H-pyrazol-4-yl)methyl)-2-oxooxazolidine-5-carboxamide]: 693 nM.
The same measure for `O=C1NC[C@@H](C(=O)NC(c2ccc(F)c(Cl)c2)c2ccn(C(F)F)n2)O1` (single isomer, unassigned) [Example 60A, (S)-N-((R or S)-(3-chloro-4-fluorophenyl)(1-(difluoromethyl)-1H-pyrazol-3-yl)methyl)-2-oxooxazolidine-5-carboxamide]: 231 nM.
In turn, `O=C1NC[C@@H](C(=O)NC(c2ccc(F)c(Cl)c2)c2ccn(C(F)F)n2)O1` (single isomer, unassigned) [Example 60B, (S)-N-((R or S)-(3-chloro-4-fluorophenyl)(1-(difluoromethyl)-1H-pyrazol-3-yl)methyl)-2-oxooxazolidine-5-carboxamide] showed an IC50 of 124 nM.
Consider `Cn1nc(C(F)(F)F)cc1C(NC(=O)[C@@H]1CNC(=O)O1)c1ccc(F)c(Cl)c1` (single isomer, unassigned) [Example 61A, (S)-N-((R or S)-(3-chloro-4-fluorophenyl)(1-methyl-3-(trifluoromethyl)-1H-pyrazol-5-yl)methyl)-2-oxooxazolidine-5-carboxamide], for which the IC50 was 4.6 nM.
Turning to `Cn1nc(C(F)(F)F)cc1C(NC(=O)[C@@H]1CNC(=O)O1)c1ccc(F)c(Cl)c1` (single isomer, unassigned) [Example 61B, (S)-N-((R or S)-(3-chloro-4-fluorophenyl)(1-methyl-3-(trifluoromethyl)-1H-pyrazol-5-yl)methyl)-2-oxooxazolidine-5-carboxamide], the IC50 was determined as 231 nM.
The compound `Cn1nc(C(NC(=O)[C@@H]2CNC(=O)O2)c2ccc(F)c(Cl)c2)cc1C(F)(F)F` (single isomer, unassigned) [Example 62A, (S)-N-((R or S)-(3-chloro-4-fluorophenyl)(1-methyl-5-(trifluoromethyl)-1H-pyrazol-3-yl)methyl)-2-oxooxazolidine-5-carboxamide] gave a 50% inhibitory concentration (IC50) of 39 nM.
The same measure for `Cn1nc(C(NC(=O)[C@@H]2CNC(=O)O2)c2ccc(F)c(Cl)c2)cc1C(F)(F)F` (single isomer, unassigned) [Example 62B, (S)-N-((R or S)-(3-chloro-4-fluorophenyl)(1-methyl-5-(trifluoromethyl)-1H-pyrazol-3-yl)methyl)-2-oxooxazolidine-5-carboxamide]: 11 nM; for `O=C1NC[C@@H](C(=O)NC(c2ccc(Cl)c(C(F)(F)F)n2)C2CCC(F)(F)CC2)O1` (single isomer, unassigned) [Example 63A, (S)-N-((R or S)-(5-chloro-6-(trifluoromethyl)pyridin-2-yl)(4,4-difluoro-cyclohexyl)methyl)-2-oxooxazolidine-5-carboxamide]: 12 nM.
The same measure for `O=C1NC[C@@H](C(=O)NC(c2ccc(Cl)c(C(F)(F)F)n2)C2CCC(F)(F)CC2)O1` (single isomer, unassigned) [Example 63B, (S)-N-((R or S)-(5-chloro-6-(trifluoromethyl)pyridin-2-yl)(4,4-difluoro-cyclohexyl)methyl)-2-oxooxazolidine-5-carboxamide]: 574 nM; for `O=C1NC[C@@H](C(=O)NC(CCc2ccc(Cl)cc2)c2ccc(F)c(Cl)c2F)O1` (single isomer, unassigned) [Example 65A, (S)—N—((R or S)-1-(3-chloro-2,4-difluorophenyl)-3-(4-chlorophenyl)propyl)-2-oxooxazolidine-5-carboxamide]: 94 nM.
The compound `O=C1NC[C@@H](C(=O)NC(CCc2ccc(Cl)cc2)c2ccc(F)c(Cl)c2F)O1` (single isomer, unassigned) [Example 65B, (S)—N—((R or S)-1-(3-chloro-2,4-difluorophenyl)-3-(4-chlorophenyl)propyl)-2-oxooxazolidine-5-carboxamide] had an IC50 of 11 nM.
The same measure for `N#Cc1cc(C(NC(=O)[C@@H]2CNC(=O)O2)c2ccc(F)c(Cl)c2)ccc1F` (single isomer, unassigned) [Example 69, (S)-N-((R or S)-(3-chloro-4-fluorophenyl)(3-cyano-4-fluorophenyl)methyl)-2-oxooxazolidine-5-carboxamide]: 16 nM; for `O=C1NC[C@@H](C(=O)NC(c2ccc(F)c(Cl)c2F)[C@H]2C[C@H](C(F)(F)F)C2)O1` (single isomer, unassigned) [Example 70, (S)—N—((R or S)-(3-chloro-2,4-difluorophenyl)((trans)-3-(trifluoromethyl)cyclobutyl)methyl)-2-oxooxazolidine-5-carboxamide]: 5.4 nM.
Turning to `O=C1NC[C@@H](C(=O)NC(c2ccc(Cl)cc2)c2ccc(OCC(F)(F)F)nn2)O1` (single isomer, unassigned) [Example 73A, (S)-N-((R or S)-(4-chlorophenyl)(6-(2,2,2-trifluoroethoxy)pyridazin-3-yl)methyl)-2-oxooxazolidine-5-carboxamide], half-maximal inhibition (IC50) was put at 964 nM.
Take `O=C1NC[C@@H](C(=O)NC(c2ccc(Cl)cc2)c2ccc(OCC(F)(F)F)nn2)O1` (single isomer, unassigned) [Example 73B, (S)-N-((R or S)-(4-chlorophenyl)(6-(2,2,2-trifluoroethoxy)pyridazin-3-yl)methyl)-2-oxooxazolidine-5-carboxamide]: it took 80 nM to reach half-maximal inhibition (IC50).
